For eight compounds, IC50 results are on record in ChEMBL document CHEMBL5055626 (J Med Chem, 2021).

Where a SMILES comes first, the peptide text is derived from it. Bridges are numbered along the chain shown (N, C = ends).

For assay [1], the target named is T1, Neuronal acetylcholine receptor; alpha3/beta4 (Rattus norvegicus, UniProt P04757+P12392). The experiment in a line: Antagonist activity at rat alpha3beta4 nAChR. The format is protein-complex assay.
In assay [2] the target is Neuronal acetylcholine receptor; alpha3/beta2 (Rattus norvegicus, UniProt P04757+P12390). The experiment in a line: Antagonist activity at rat alpha3beta2 nAChR expressed in xenopus oocytes assessed as inhibition of Ach- induced response at -70 mV holding potential preincubated for 5 mins followed by Ach stimulation by voltage-clamp based electrophysiological method. In kind it is cell-based, Oocyte.

Assay [3] is described as follows: Antagonist activity at rat alpha6/ alpha3beta2beta3 nAChR expressed in xenopus oocytes assessed as inhibition of Ach- induced response at -70 mV holding potential preincubated for 5 mins followed by Ach stimulation by voltage-clamp based electrophysiological method. Conditions: Oocyte. In kind it is cell-based.
In assay [4] the target is T2, Nicotinic acetylcholine receptor alpha6/alpha3/beta4 (Homo sapiens, UniProt P30926+P32297+Q15825). The experiment in a line: Antagonist activity at rat alpha6/alpha3beta4 nAChR expressed in xenopus oocytes assessed as inhibition of Ach- induced response at -70 mV holding potential preincubated for 5 mins followed by Ach stimulation by voltage-clamp based electrophysiological method. The format is cell-based, Oocyte.

Assay [5] deals with T3, Neuronal acetylcholine receptor subunit alpha-7 (Rattus norvegicus, UniProt Q05941). Put plainly: Antagonist activity at rat alpha7 nAChR expressed in xenopus oocytes assessed as inhibition of Ach- induced response at -80 mV holding potential incubated for 200 secs followed by Ach stimulation by voltage-clamp based electrophysiological method. In kind it is cell-based, Oocyte.

Assay [6] addresses T1, Neuronal acetylcholine receptor; alpha3/beta4. The experiment in a line: Antagonist activity at rat alpha3beta4 nAChR expressed in xenopus oocytes assessed as inhibition of Ach- induced response at -80 mV holding potential incubated for 200 secs followed by Ach stimulation by voltage-clamp based electrophysiological method. The format is cell-based, Oocyte.
The target is the same in assay [7]. The experiment in a line: Antagonist activity at rat alpha3beta4 nAChR expressed in xenopus oocytes assessed as inhibition of Ach- induced response at -70 mV holding potential preincubated for 5 mins followed by Ach stimulation by voltage-clamp based electrophysiological method. The format is cell-based, Oocyte.
Assay [8] concerns the target T3, Neuronal acetylcholine receptor subunit alpha-7. Put plainly: Antagonist activity at rat alpha7 nAChR expressed in xenopus oocytes assessed as inhibition of Ach- induced response at -70 mV holding potential preincubated for 5 mins followed by Ach stimulation by voltage-clamp based electrophysiological method. The format is cell-based, Oocyte.
Assay [9] can be described thus: Antagonist activity at rat alpha6/ alpha3beta2beta3 nAChR.
In assay [10] the target is T2, Nicotinic acetylcholine receptor alpha6/alpha3/beta4. The experiment in a line: Antagonist activity at rat alpha6/alpha3beta4 nAChR. The format is protein-complex assay. Conditions: target entry is the homologue from another species.
In assay [11] the target is T3, Neuronal acetylcholine receptor subunit alpha-7. The experiment in a line: Antagonist activity at rat alpha7 nAChR expressed in xenopus oocytes assessed as inhibition of Ach- induced response at -100 mV holding potential incubated for 200 secs followed by acetyl choline stimulation by two- electrode voltage-clamp based electrophysiological method. The format is cell-based, Oocyte.

T3 sequence (Q05941 whole entry): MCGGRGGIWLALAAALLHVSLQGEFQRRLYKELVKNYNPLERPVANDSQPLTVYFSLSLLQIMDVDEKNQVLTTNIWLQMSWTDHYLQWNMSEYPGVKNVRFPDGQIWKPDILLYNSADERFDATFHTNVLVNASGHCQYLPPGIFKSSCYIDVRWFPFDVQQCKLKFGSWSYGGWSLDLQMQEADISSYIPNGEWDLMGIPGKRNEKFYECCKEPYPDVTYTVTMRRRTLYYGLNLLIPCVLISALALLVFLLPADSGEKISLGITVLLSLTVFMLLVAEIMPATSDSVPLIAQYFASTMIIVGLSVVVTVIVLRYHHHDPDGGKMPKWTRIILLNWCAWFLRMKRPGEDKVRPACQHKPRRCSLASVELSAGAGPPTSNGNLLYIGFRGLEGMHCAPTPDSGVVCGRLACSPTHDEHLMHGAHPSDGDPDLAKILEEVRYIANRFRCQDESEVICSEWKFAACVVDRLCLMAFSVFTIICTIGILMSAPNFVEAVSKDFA
T1 sequence (P04757 whole entry): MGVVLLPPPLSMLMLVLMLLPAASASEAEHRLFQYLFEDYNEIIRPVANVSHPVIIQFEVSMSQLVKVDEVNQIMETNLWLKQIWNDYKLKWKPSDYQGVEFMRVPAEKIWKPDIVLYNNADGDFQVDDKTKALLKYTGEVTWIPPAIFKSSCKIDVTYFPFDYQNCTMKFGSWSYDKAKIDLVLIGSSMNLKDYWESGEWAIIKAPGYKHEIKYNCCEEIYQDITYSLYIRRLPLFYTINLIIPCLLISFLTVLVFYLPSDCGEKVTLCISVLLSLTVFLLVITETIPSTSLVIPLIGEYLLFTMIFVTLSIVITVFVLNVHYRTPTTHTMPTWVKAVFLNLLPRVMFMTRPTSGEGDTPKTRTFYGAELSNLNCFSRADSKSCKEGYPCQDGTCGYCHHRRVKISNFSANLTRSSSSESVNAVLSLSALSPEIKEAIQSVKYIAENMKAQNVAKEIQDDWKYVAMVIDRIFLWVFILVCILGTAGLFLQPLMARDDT
T1 sequence (P12392 whole entry): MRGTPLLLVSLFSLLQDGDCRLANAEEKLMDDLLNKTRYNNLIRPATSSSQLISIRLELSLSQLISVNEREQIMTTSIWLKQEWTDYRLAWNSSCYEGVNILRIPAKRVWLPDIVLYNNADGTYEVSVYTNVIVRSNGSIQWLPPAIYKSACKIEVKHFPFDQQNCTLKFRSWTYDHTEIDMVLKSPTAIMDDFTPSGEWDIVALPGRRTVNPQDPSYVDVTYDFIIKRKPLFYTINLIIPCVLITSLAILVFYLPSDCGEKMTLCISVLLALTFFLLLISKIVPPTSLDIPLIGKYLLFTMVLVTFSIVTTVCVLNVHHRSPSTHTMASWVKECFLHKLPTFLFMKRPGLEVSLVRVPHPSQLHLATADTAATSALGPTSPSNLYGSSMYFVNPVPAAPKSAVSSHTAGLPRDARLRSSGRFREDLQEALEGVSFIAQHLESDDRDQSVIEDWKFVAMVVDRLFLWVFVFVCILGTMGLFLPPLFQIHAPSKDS
T2 sequence (P30926 whole entry): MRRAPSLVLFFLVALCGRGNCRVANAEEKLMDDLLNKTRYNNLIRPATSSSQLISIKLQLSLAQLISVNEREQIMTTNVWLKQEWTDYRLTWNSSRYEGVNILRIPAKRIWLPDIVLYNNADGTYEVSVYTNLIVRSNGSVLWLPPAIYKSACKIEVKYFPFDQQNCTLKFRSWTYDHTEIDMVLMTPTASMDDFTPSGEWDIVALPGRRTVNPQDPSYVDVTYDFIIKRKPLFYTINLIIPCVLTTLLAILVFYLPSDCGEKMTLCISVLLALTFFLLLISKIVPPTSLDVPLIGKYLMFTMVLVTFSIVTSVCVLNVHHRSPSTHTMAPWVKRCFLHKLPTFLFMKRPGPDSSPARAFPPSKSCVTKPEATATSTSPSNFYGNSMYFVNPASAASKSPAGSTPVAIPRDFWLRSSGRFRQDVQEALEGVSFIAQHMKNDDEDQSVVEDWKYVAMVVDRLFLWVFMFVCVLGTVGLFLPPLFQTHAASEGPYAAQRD
T2 sequence (P32297 whole entry): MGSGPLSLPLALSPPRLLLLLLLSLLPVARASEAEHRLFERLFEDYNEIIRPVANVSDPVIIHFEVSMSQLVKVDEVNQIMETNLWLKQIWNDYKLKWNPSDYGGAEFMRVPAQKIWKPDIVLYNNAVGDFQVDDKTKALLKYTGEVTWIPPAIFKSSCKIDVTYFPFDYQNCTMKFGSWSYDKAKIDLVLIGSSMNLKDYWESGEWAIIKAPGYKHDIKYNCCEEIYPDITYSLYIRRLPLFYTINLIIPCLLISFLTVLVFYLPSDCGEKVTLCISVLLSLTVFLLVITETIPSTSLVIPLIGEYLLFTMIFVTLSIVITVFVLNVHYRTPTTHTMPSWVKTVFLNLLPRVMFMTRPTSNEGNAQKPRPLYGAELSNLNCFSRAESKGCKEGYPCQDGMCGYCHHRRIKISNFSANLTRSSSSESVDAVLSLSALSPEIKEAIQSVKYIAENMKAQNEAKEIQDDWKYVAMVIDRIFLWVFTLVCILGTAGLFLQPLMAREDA
T2 sequence (Q15825 whole entry): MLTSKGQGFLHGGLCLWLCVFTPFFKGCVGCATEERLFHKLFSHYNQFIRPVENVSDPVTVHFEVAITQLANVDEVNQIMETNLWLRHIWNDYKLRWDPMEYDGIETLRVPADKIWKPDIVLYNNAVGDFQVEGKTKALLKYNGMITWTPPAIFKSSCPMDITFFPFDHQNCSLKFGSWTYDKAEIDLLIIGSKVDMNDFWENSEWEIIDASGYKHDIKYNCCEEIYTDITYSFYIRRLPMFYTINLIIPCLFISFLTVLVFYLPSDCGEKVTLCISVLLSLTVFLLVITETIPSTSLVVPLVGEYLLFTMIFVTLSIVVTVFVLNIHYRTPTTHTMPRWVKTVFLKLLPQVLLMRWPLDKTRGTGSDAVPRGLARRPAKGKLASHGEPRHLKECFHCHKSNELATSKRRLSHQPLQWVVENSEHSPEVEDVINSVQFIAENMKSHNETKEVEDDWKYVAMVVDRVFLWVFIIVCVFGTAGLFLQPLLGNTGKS
Chain of Neuronal acetylcholine receptor; alpha3/beta2 (P04757 whole entry): as the sequence (P04757 whole entry) above
Chain of Neuronal acetylcholine receptor; alpha3/beta2 (P12390 whole entry): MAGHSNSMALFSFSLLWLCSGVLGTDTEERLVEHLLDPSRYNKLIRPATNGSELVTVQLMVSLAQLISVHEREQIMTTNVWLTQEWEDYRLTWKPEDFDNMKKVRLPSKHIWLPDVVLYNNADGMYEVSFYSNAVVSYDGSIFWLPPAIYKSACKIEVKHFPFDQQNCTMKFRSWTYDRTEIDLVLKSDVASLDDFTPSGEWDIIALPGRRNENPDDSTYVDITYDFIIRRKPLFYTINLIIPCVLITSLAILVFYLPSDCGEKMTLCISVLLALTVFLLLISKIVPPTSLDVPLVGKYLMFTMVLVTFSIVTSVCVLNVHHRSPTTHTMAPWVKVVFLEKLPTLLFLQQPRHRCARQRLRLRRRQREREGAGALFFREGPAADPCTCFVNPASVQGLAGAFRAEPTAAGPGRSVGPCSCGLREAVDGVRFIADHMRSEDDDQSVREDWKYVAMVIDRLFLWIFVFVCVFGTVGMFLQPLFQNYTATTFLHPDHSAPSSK

Turning to `CC(C)C[C@@H]1NC(=O)[C@H](C(C)C)NC(=O)[C@H](C)NC(=O)[C@@H]2CSSC[C@H](NC(=O)CN)C(=O)N[C@@H](CSSC[C@H](C(=O)NCC(=O)O)NC(=O)[C@H](Cc3ccc(O)cc3)NC1=O)C(=O)N[C@@H](CO)C(=O)N[C@@H]([C@@H](C)O)C(=O)N1CCC[C@H]1C(=O)N1CCC[C@H]1C(=O)N2`, the IC50 (in general, the midpoint of a concentration-inhibition curve) in [1] is 37.7 nM; in assay [2], 5.7 nM; in assay [3] it was 0.258 nM; in [4], 1.5 nM.
`CC(C)[C@@H]1NC(=O)[C@H](Cc2cnc[nH]2)NC(=O)[C@@H]2CCCN2C(=O)[C@H](CC(N)=O)NC(=O)[C@H](CC(N)=O)NC(=O)[C@H](C(C)C)NC(=O)[C@H](CCCNC(=N)N)NC(=O)[C@@H]2CSSC[C@H](NC(=O)[C@H](CCC(=O)O)NC(=O)[C@@H](N)CC(=O)O)C(=O)N[C@@H](CSSC[C@@H](C(=O)N[C@@H](CCCNC(=N)N)C(=O)N[C@@H](CCCNC(=N)N)C(=O)N[C@@H](CCCNC(=N)N)C(=O)O)NC1=O)C(=O)N[C@@H](CO)C(=O)N[C@@H](CC(N)=O)C(=O)N1CCC[C@H]1C(=O)N[C@@H](C)C(=O)N2`: the IC50 amounted to 5 nM in assay [5] and 3 nM in assay [6].
As for `CC(C)C[C@@H]1NC(=O)[C@H](C(C)C)NC(=O)[C@H](C)NC(=O)[C@@H]2CSSC[C@H](NC(=O)CN)C(=O)N[C@@H](CSSC[C@H](C(=O)NCC(=O)O)NC(=O)[C@H](Cc3ccc(O)cc3)NC1=O)C(=O)N[C@@H](CO)C(=O)N[C@@H](C)C(=O)N1CC(O)C[C@H]1C(=O)N1CCC[C@H]1C(=O)N2` (stereo partly specified), the figures for the IC50 in assay [7] and in [4] were 1200 nM and 58.1 nM, respectively.
In the case of `CC[C@H](C)[C@@H]1NC(=O)[C@H](Cc2cnc[nH]2)NC(=O)[C@@H]2CCCN2C(=O)[C@H](CC(N)=O)NC(=O)[C@H](CC(N)=O)NC(=O)[C@H](C(C)C)NC(=O)[C@H](CC(N)=O)NC(=O)[C@@H]2CSSC[C@H](NC(=O)CN)C(=O)N[C@@H](CSSC[C@@H](C(=O)NCC(N)=O)NC1=O)C(=O)N[C@@H](CO)C(=O)N[C@@H](Cc1cnc[nH]1)C(=O)N1CCC[C@H]1C(=O)N[C@@H](C)C(=O)N2` (H-GCCSHPACNVNNPHICG-NH2; disulfide 2-8, 3-16), the IC50 in assay [8] stood at 27 nM.
On to `CC(C)C[C@@H]1NC(=O)[C@H](C(C)C)NC(=O)[C@H](C)NC(=O)[C@@H]2CSSC[C@H](NC(=O)CN)C(=O)N[C@@H](CSSC[C@H](C(=O)NCC(=O)O)NC(=O)[C@H](Cc3ccc(O)cc3)NC1=O)C(=O)N[C@@H](CO)C(=O)N[C@@H]([C@@H](C)O)C(=O)N1CC(O)C[C@H]1C(=O)N1CCC[C@H]1C(=O)N2` (stereo partly specified), for which the IC50 in [9] was found to be 1300 nM; in [10] it was 12 nM.
`CC(C)[C@@H]1NC(=O)[C@H](Cc2cnc[nH]2)NC(=O)[C@@H]2CCCN2C(=O)[C@H](CC(N)=O)NC(=O)[C@H](CC(N)=O)NC(=O)[C@H](C(C)C)NC(=O)[C@H](CCCNC(=N)N)NC(=O)[C@H]2CSSC[C@H](NC(=O)[C@H](CCC(=O)O)NC(=O)[C@@H](N)CC(=O)O)C(=O)N[C@@H](CSSC[C@@H](C(=O)N[C@@H](CCCNC(=N)N)C(=O)N[C@@H](CCCNC(=N)N)C(=O)N[C@@H](CCCNC(=N)N)C(=O)O)NC1=O)C(=O)N[C@@H](CO)C(=O)N[C@@H](CC(N)=O)C(=O)N1CCC[C@H]1C(=O)N[C@@H](C)C(=O)N2`: the IC50 in assay [2] came out at 6 nM; in assay [3], 60 nM; in [8], 2 nM.
In the case of `C[C@H](N)C(=O)N[C@H]1CSSC[C@@H]2NC(=O)[C@H](CCCNC(=N)N)NC(=O)[C@H](CCCNC(=N)N)NC(=O)[C@H](CC(=O)O)NC(=O)[C@H](CO)NC(=O)[C@H](CSSC[C@H](C(N)=O)NC(=O)[C@H](CCCNC(=N)N)NC(=O)[C@H](Cc3c[nH]c4ccccc34)NC(=O)[C@H](CCCNC(=N)N)NC2=O)NC1=O`, the concentration for half-maximal inhibition (IC50) in assay [8] was determined as 440 nM.
As to `C[C@@H]1NC(=O)[C@@H]2CSSC[C@H](NC(=O)CN)C(=O)N[C@@H](CSSC[C@@H](C(N)=O)NC(=O)[C@H](CCCNC(=N)N)NC(=O)[C@H](Cc3c[nH]c4ccccc34)NC1=O)C(=O)N[C@@H](CO)C(=O)N[C@@H](CC(=O)O)C(=O)N1CCC[C@H]1C(=O)N[C@@H](CCCNC(=N)N)C(=O)N2`, in assay [11], the IC50 is 69 nM.
